Assay results: patent US4363807A, “Cepham compounds” (Fujisawa Pharmaceutical Company, Limited, priority 1978, dated 1982)
In brackets after ≈: the same amount, converted by molar mass.

Assays:
Proteus mirabilis 18 = experiment: In vitro antibacterial activity, two-fold agar-plate dilution method (MIC), Proteus mirabilis 18; assay type: cell-based; settings: heart infusion agar, 37° C., 20 hours, read-out: MIC (minimal inhibitory concentration)
Experimental: (§1) 1. In vitro antibacterial activity: (1) Test method: In vitro antibacterial activity was determined by the two-fold agar-plate dilution method as described below. One loopful of an overnight culture of each test strain in Trypticase soy broth was streaked on heart infusion agar (HI-agar) containing graded concentration of the test compound and incubated at 37° C. for 20 hours. The minimal inhibitory concentration (MIC) was expressed in μg/ml.

Klebsiella pneumoniae 20 = experiment: In vitro antibacterial activity, two-fold agar-plate dilution method (MIC), Klebsiella pneumoniae 20; assay type: cell-based; settings: heart infusion agar, 37° C., 20 hours, read-out: MIC (minimal inhibitory concentration)
Experimental: as §1

Structure (SMILES): CO/N=C(\C(=O)NC1C(=O)N2C(C(=O)O)C(=COC(C)=O)CSC12)c1csc(N)n1 (stereo not drawn) [Test compound, 7-[2-(2-Aminothiazol-4-yl)-2-methoxyiminoacetamido]-3-acetoxymethylenecepham-4-carboxylic acid (syn isomer)]
- MIC (Proteus mirabilis 18): 6.25 µg/mL (≈ 13.7 µM)
- MIC (Klebsiella pneumoniae 20): 6.25 µg/mL (≈ 13.7 µM)
